In patent US8227429B2, “Macrolide synthesis process and solid-state forms” (Intervet International B.V., priority 2006, dated 2012):
Structures can show the parent of a compound that is named as a salt. Where two headings read alike, the source gives them in different places. Values belong to the compound of their own block, whether it stands above or below them.

Assays:
[1] = Desolvation / stability on drying under vacuum
Description: In one experiment, the S2 crystalline solvate was prepared by dissolving the Form II polymorph of 20,23-dipiperidinyl-5-O-mycaminosyl-tylonolide (245.7 mg) in tert-butyl methyl ether (0.5 ml), and slowly evaporating a portion of the solvent at ambient temperature. After no crystals formed, additional tert-butyl methyl ether was added, followed by seeding S2 solvate crystals from the first batch. The solvent was then allowed to evaporate completely. […] In further testing, the crystals were vacuum-dried at ambient temperature for 20 hours, and then dried again under vacuum for 24 hours at about 70° C.

[2] = Thermogravimetry coupled to FTIR (TG-FTIR); type: physicochemical
Description: Measurements of thermogravimetry coupled to Fourier transform infrared spectroscopy (“TG-FTIR”) were obtained using a Netzsch Thermo-Microbalance TG 209 with a Bruker Vector 22 FT-IR Spectrometer using an aluminum crucible (with micro-hole or open), N2 atmosphere, heating rate of 10° C./min, and temperature range of 25-250° C.

[3] = Dynamic vapor sorption (DVS) water uptake; type: physicochemical; conditions: 25° C.; for maximum water uptake: at 95% relative humidity
Description: Dynamic vapor sorption (“DVS”) measurements were obtained with a Projekt Messtechnik SPS11-100n water vapor sorption analyzer. The samples were placed into aluminum crucibles on a microbalance, and allowed to equilibrate at 25° C. and 50% relative humidity before initiating the following pre-defined humidity program at 25° C.: 50-95-0-50% relative humidity, and scanning with a 5% change in relative humidity per hour and with iso-humid equilibration periods at extreme values.

[4] = Relative solid-state stability (Applicants' observations); type: physicochemical
Thermogravimetry (TG) = type: physicochemical
Description: Thermogravimetry (“TG”) measurements were obtained with a Perkin Elmer TGS 2 thermogravimetric analyzer using an aluminum crucible (open), N2 atmosphere, heating rate of 10° C./min, and temperature range of 25-500° C.

Solubility in tBME = type: physicochemical

SMILES: CC[C@H]1OC(=O)C[C@@H](O)[C@H](C)[C@@H](OC2OC(C)C(O)C(N(C)C)C2O)[C@@H](CCN2CCCCC2)C[C@@H](C)C(=O)/C=C/C(C)=C/[C@@H]1CN1CCCCC1 (stereo in doubt) [ethyl acetate S1 crystalline solvate]
result of vacuum drying ([1]; ambient temperature): readily converted into the Form III polymorph | weight loss due to liberation of solvent [2]: approximately 4.1%

SMILES: CC[C@H]1OC(=O)C[C@@H](O)[C@H](C)[C@@H](OC2OC(C)C(O)C(N(C)C)C2O)[C@@H](CCN2CCCCC2)C[C@@H](C)C(=O)/C=C/C(C)=C/[C@@H]1CN1CCCCC1 (stereo in doubt) [ethyl formate crystalline solvate]
temperature at which desolvation was nearly completed [2]: ~130 °C | weight loss due to liberation of solvent [2]: about 7.7%

SMILES: CC[C@H]1OC(=O)C[C@@H](O)[C@H](C)[C@@H](OC2OC(C)C(O)C(N(C)C)C2O)[C@@H](CCN2CCCCC2)C[C@@H](C)C(=O)/C=C/C(C)=C/[C@@H]1CN1CCCCC1 (stereo in doubt) [Form II polymorph]
maximum water uptake [3]: about 2 % (by weight) | temperature at which decomposition began [2]: greater than 220 °C | weight loss ([2]; mainly in the temperature range of from 50 to 100° C., attributed to water loss): 0.7%

SMILES: CC[C@H]1OC(=O)C[C@@H](O)[C@H](C)[C@@H](OC2OC(C)C(O)C(N(C)C)C2O)[C@@H](CCN2CCCCC2)C[C@@H](C)C(=O)/C=C/C(C)=C/[C@@H]1CN1CCCCC1 (stereo in doubt) [ethanol S1 crystalline solvate]
weight loss due to liberation of solvent ([2]; up to 200° C.): approximately 6.6%

SMILES: CC[C@H]1OC(=O)C[C@@H](O)[C@H](C)[C@@H](OC2OC(C)C(O)C(N(C)C)C2O)[C@@H](CCN2CCCCC2)C[C@@H](C)C(=O)/C=C/C(C)=C/[C@@H]1CN1CCCCC1 (stereo in doubt) [Form I polymorph]
maximum water uptake [3]: less than 1 % (by weight) | weight loss ([2]; temperature range of from 60 to 180° C., attributed to water loss): 0.6% | stability relative to other solid-state forms [4]: greater stability at ambient temperature than the other above-listed solid-state forms

SMILES: CC[C@H]1OC(=O)C[C@@H](O)[C@H](C)[C@@H](OC2OC(C)C(O)C(N(C)C)C2O)[C@@H](CCN2CCCCC2)C[C@@H](C)C(=O)/C=C/C(C)=C/[C@@H]1CN1CCCCC1 (stereo in doubt) [diethyl ketone S1 crystalline solvate]
weight loss due to liberation of solvent [2]: 10%

Second part, led by results:

weight loss due to liberation of solvent ([2]; at temperatures greater than 100° C.): about 8.1%
SMILES: CC[C@H]1OC(=O)C[C@@H](O)[C@H](C)[C@@H](OC2OC(C)C(O)C(N(C)C)C2O)[C@@H](CCN2CCCCC2)C[C@@H](C)C(=O)/C=C/C(C)=C/[C@@H]1CN1CCCCC1 (stereo in doubt) [THF S3 crystalline solvate]

stability ([1]; 60° C. at 1 mbar (absolute) for 1 day): exhibits stability | result of drying under vacuum ([1]; ambient temperature and 70° C.): no loss of solvent was observed
SMILES: CC[C@H]1OC(=O)C[C@@H](O)[C@H](C)[C@@H](OC2OC(C)C(O)C(N(C)C)C2O)[C@@H](CCN2CCCCC2)C[C@@H](C)C(=O)/C=C/C(C)=C/[C@@H]1CN1CCCCC1 (stereo partly shown) [tBME S2 crystalline solvate]
stability relative to other solid-state forms ([4]; listed as tBME crystalline solvate): more stable than the ethyl acetate S1 crystalline solvate

temperature at which desolvation was nearly completed [2]: ~160 °C | weight loss due to liberation of solvent [2]: about 8.4%
SMILES: CC[C@H]1OC(=O)C[C@@H](O)[C@H](C)[C@@H](OC2OC(C)C(O)C(N(C)C)C2O)[C@@H](CCN2CCCCC2)C[C@@H](C)C(=O)/C=C/C(C)=C/[C@@H]1CN1CCCCC1 (stereo partly shown) [methyl acetate crystalline solvate]

water uptake ([3]; between 70 and 85% relative humidity): about 6% | temperature at which decomposition began (Thermogravimetry (TG)): greater than 270 °C | weight loss (Thermogravimetry (TG); up to 200° C.): less than 0.05% | weight loss ([2]; up to 220° C., most between 50 and 120° C.): 1.7%
SMILES: CC[C@H]1OC(=O)C[C@@H](O)[C@H](C)[C@@H](OC2OC(C)C(O)C(N(C)C)C2O)[C@@H](CCN2CCCCC2)C[C@@H](C)C(=O)/C=C/C(C)=C/[C@@H]1CN1CCCCC1 (stereo in doubt) [Form III polymorph]

solubility (Solubility in tBME; organic solvent or mixture): 40 to 50 mg/mL | solubility in tBME relative to the Form II polymorph (Solubility in tBME; solvent tBME): at least one order of magnitude less | weight loss due to liberation of solvent [2]: 8.7-10%
SMILES: CC[C@H]1OC(=O)C[C@@H](O)[C@H](C)[C@@H](OC2OC(C)C(O)C(N(C)C)C2O)[C@@H](CCN2CCCCC2)C[C@@H](C)C(=O)/C=C/C(C)=C/[C@@H]1CN1CCCCC1 (stereo in doubt) [tBME S2 crystalline solvate]
